In one assay the target is human GABA A receptor α5β3γ2 (Homo sapiens (Human), UniProt P18507+P31644). Put plainly: [3H]flumazenil competition binding assay, human GABA A α5β3γ2 receptors expressed in HEK293 cells.
Details: not given
In outline: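 Ki values, each the mean of two runs, derive from displacement of [3H]flumazenil from human α5β3γ2 GABA A receptors transiently expressed in HEK293 membranes. Binding ran 1 h at 4° C in Krebs-tris, pH 7.5, before filter harvest and scintillation counting.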
The compound `Cc1onc(-c2ccc(F)cc2)c1COc1ccc(C(=O)N2C[C@H]3C[C@@H](C2)O3)cn1` [Example 114, {6-[3-(4-Fluoro-phenyl)-5-methyl-isoxazol-4-ylmethoxy]-pyridin-3-yl}-(1R,5S)-6-oxa-3-aza-bicyclo [3.1.1]hept-3-yl-methanone] gave a Ki of 42.6 nM.

Still in this assay, the particulars now being: human receptor; displacement of [3H]flumazenil (0.5 nM); means of two determinations; read-out: hKi GABAAa5.
`Cc1onc(-c2ccccc2F)c1COc1ccc(C(=O)NC2CCOCC2)cn1` [Example 87, 6-[3-(2-Fluoro-phenyl)-5-methyl-isoxazol-4-ylmethoxy]-N-(tetrahydro-pyran-4-yl)-nicotinamide]: the Ki came out at 4.6 nM.

As to `COC(=O)c1ccc(OCc2c(-c3cccc(F)c3)noc2C)nc1` [Example 88, 6-[3-(3-Fluoro-phenyl)-5-methyl-isoxazol-4-ylmethoxy]-nicotinic acid methyl ester], the Ki was determined as 17.4 nM.

For the compound `Cc1onc(-c2cccc(F)c2)c1COc1ccc(C(=O)NCC(F)(F)F)cn1` [Example 89, 6-[3-(3-Fluoro-phenyl)-5-methyl-isoxazol-4-ylmethoxy]-N-(2,2,2-trifluoro-ethyl)-nicotinamide], the Ki stood at 3 nM.

`Cc1onc(-c2cccc(F)c2)c1COc1ccc(C(=O)NCC2CC2)cn1` [Example 90, N-Cyclopropylmethyl-6-[3-(3-fluoro-phenyl)-5-methyl-isoxazol-4-ylmethoxy]-nicotinamide]: the Ki was found to be 3.2 nM.

`Cc1onc(-c2cccc(F)c2)c1COc1ccc(C(=O)NC(C)C)cn1` [Example 91, 6-[3-(3-Fluoro-phenyl)-5-methyl-isoxazol-4-ylmethoxy]-N-isopropyl-nicotinamide]: the Ki is 2.3 nM.

Take `Cc1onc(-c2cccc(F)c2)c1COc1ccc(C(=O)NC2CC2)cn1` [Example 92, N-Cyclopropyl-6-[3-(3-fluoro-phenyl)-5-methyl-isoxazol-4-ylmethoxy]-nicotinamide]: the Ki is 41.3 nM.

With `Cc1onc(-c2cccc(F)c2)c1COc1ccc(C(=O)NC2CCOCC2)cn1` [Example 93, 6-[3-(3-Fluoro-phenyl)-5-methyl-isoxazol-4-ylmethoxy]-N-(tetrahydro-pyran-4-yl)-nicotinamide], the Ki came out at 1.7 nM.

Regarding `Cc1onc(-c2cccc(F)c2)c1COc1ccc(C(=O)N2CCOCC2)cn1` [Example 94, {6-[3-(3-Fluoro-phenyl)-5-methyl-isoxazol-4-ylmethoxy]-pyridin-3-yl}-morpholin-4-yl-methanone], the Ki is 48.1 nM.

With `Cc1onc(-c2cccc(F)c2)c1COc1ccc(C(=O)N2CCSCC2)cn1` [Example 95, {6-[3-(3-Fluoro-phenyl)-5-methyl-isoxazol-4-ylmethoxy]-pyridin-3-yl}-thiomorpholin-4-yl-methanone], the Ki is 45.6 nM.

Regarding `Cc1onc(-c2cccc(F)c2)c1COc1ccc(C(=O)N2CCS(=O)(=O)CC2)cn1` [Example 96, (1,1-Dioxo-1λ6-thiomorpholin-4-yl)-{6-[3-(3-fluoro-phenyl)-5-methyl-isoxazol-4-ylmethoxy]-pyridin-3-yl}-methanone], the Ki turned out to be 13.4 nM.

As for `COC(=O)c1ccc(OCc2c(-c3cccc(Cl)c3)noc2C)nc1` [Example 97, 6-[3-(3-Chloro-phenyl)-5-methyl-isoxazol-4-ylmethoxy]-nicotinic acid methyl ester], the Ki is 27.4 nM.

With `Cc1onc(-c2cccc(Cl)c2)c1COc1ccc(C(=O)NCC(F)(F)F)cn1` [Example 98, 6-[3-(3-Chloro-phenyl)-5-methyl-isoxazol-4-ylmethoxy]-N-(2,2,2-trifluoro-ethyl)-nicotinamide], the Ki was 7.8 nM.

Turning to `Cc1onc(-c2cccc(Cl)c2)c1COc1ccc(C(=O)NCC2CC2)cn1` [Example 99, 6-[3-(3-Chloro-phenyl)-5-methyl-isoxazol-4-ylmethoxy]-N-cyclopropylmethyl-nicotinamide], the Ki is 8.1 nM.

On to `Cc1onc(-c2cccc(Cl)c2)c1COc1ccc(C(=O)NC2CC2)cn1` [Example 100, 6-[3-(3-Chloro-phenyl)-5-methyl-isoxazol-4-ylmethoxy]-N-cyclopropyl-nicotinamide], for which the Ki worked out at 7.6 nM.

For `Cc1onc(-c2cccc(Cl)c2)c1COc1ccc(C(=O)NC2CCOCC2)cn1` [Example 101, 6-[3-(3-Chloro-phenyl)-5-methyl-isoxazol-4-ylmethoxy]-N-(tetrahydro-pyran-4-yl)-nicotinamide], the Ki amounted to 3.9 nM.

As for `Cc1onc(-c2cccc(Cl)c2)c1COc1ccc(C(=O)N2CCS(=O)(=O)CC2)cn1` [Example 102, {6-[3-(3-Chloro-phenyl)-5-methyl-isoxazol-4-ylmethoxy]-pyridin-3-yl}-(1,1-dioxo-1λ6-thiomorpholin-4-yl)-methanone], the Ki worked out at 19.5 nM.

For `COC(=O)c1ccc(OCc2c(-c3ccc(F)cc3)noc2C)nc1` [Example 103, 6-[3-(4-Fluoro-phenyl)-5-methyl-isoxazol-4-ylmethoxy]-nicotinic acid methyl ester], the Ki is 16.2 nM.

In the case of `Cc1onc(-c2ccc(F)cc2)c1COc1ccc(C(=O)O)cn1` [Example 104, 6-[3-(4-Fluoro-phenyl)-5-methyl-isoxazol-4-ylmethoxy]-nicotinic acid], the Ki worked out at 39.5 nM.

Turning to `Cc1onc(-c2ccc(F)cc2)c1COc1ccc(C(=O)NCC(F)(F)F)cn1` [Example 105, 6-[3-(4-Fluoro-phenyl)-5-methyl-isoxazol-4-ylmethoxy]-N-(2,2,2-trifluoro-ethyl)-nicotinamide], the Ki amounted to 1.2 nM.

As for `Cc1onc(-c2ccc(F)cc2)c1COc1ccc(C(=O)NCC2CC2)cn1` [Example 106, N-Cyclopropylmethyl-6-[3-(4-fluoro-phenyl)-5-methyl-isoxazol-4-ylmethoxy]-nicotinamide], the Ki amounted to 1.5 nM.

Take `Cc1onc(-c2ccc(F)cc2)c1COc1ccc(C(=O)NC(C)C)cn1` [Example 107, 6-[3-(4-Fluoro-phenyl)-5-methyl-isoxazol-4-ylmethoxy]-N-isopropyl-nicotinamide]: the Ki worked out at 0.7 nM.

Consider `Cc1onc(-c2ccc(F)cc2)c1COc1ccc(C(=O)NC2CC2)cn1` [Example 108, N-Cyclopropyl-6-[3-(4-fluoro-phenyl)-5-methyl-isoxazol-4-ylmethoxy]-nicotinamide], for which the Ki was 1.1 nM.

As for `Cc1onc(-c2ccc(F)cc2)c1COc1ccc(C(=O)NC2CCOCC2)cn1` [Example 109, 6-[3-(4-Fluoro-phenyl)-5-methyl-isoxazol-4-ylmethoxy]-N-(tetrahydro-pyran-4-yl)-nicotinamide], the Ki is 0.8 nM.

As for `Cc1onc(-c2ccc(F)cc2)c1COc1ccc(C(=O)N2CCOCC2)cn1` [Example 110, {6-[3-(4-Fluoro-phenyl)-5-methyl-isoxazol-4-ylmethoxy]-pyridin-3-yl}-morpholin-4-yl-methanone], the Ki stood at 13 nM.

On to `Cc1onc(-c2ccc(F)cc2)c1COc1ccc(C(=O)N2CCSCC2)cn1` [Example 111, {6-[3-(4-Fluoro-phenyl)-5-methyl-isoxazol-4-ylmethoxy]-pyridin-3-yl}-thiomorpholin-4-yl-methanone], for which the Ki turned out to be 10.4 nM.

On to `Cc1onc(-c2ccc(F)cc2)c1COc1ccc(C2(O)COC2)cn1` [Example 113, 3-{6-[3-(4-Fluoro-phenyl)-5-methyl-isoxazol-4-ylmethoxy]-pyridin-3-yl}-oxetan-3-ol], for which the Ki was determined as 20.9 nM.

With `COC(=O)c1ccc(OCc2c(-c3ccc(Cl)cc3)noc2C)nc1` [Example 115, 6-[3-(4-Chloro-phenyl)-5-methyl-isoxazol-4-ylmethoxy]-nicotinic acid methyl ester], the Ki is 4.5 nM.

For `Cc1onc(-c2ccc(Cl)cc2)c1COc1ccc(C(=O)O)cn1` [Example 116, 6-[3-(4-Chloro-phenyl)-5-methyl-isoxazol-4-ylmethoxy]-nicotinic acid], the Ki is 22.3 nM.

`Cc1onc(-c2ccc(Cl)cc2)c1COc1ccc(C(=O)NCC(F)(F)F)cn1` [Example 117, 6-[3-(4-Chloro-phenyl)-5-methyl-isoxazol-4-ylmethoxy]-N-(2,2,2-trifluoro-ethyl)-nicotinamide]: the Ki was determined as 2.1 nM.

As for `Cc1onc(-c2ccc(Cl)cc2)c1COc1ccc(C(=O)NCC2CC2)cn1` [Example 118, 6-[3-(4-Chloro-phenyl)-5-methyl-isoxazol-4-ylmethoxy]-N-cyclopropylmethyl-nicotinamide], the Ki was 1.3 nM.

On to `Cc1onc(-c2ccc(Cl)cc2)c1COc1ccc(C(=O)NC(C)C)cn1` [Example 119, 6-[3-(4-Chloro-phenyl)-5-methyl-isoxazol-4-ylmethoxy]-N-isopropyl-nicotinamide], for which the Ki is 0.7 nM.

As for `Cc1onc(-c2ccc(Cl)cc2)c1COc1ccc(C(=O)NC2CC2)cn1` [Example 120, 6-[3-(4-Chloro-phenyl)-5-methyl-isoxazol-4-ylmethoxy]-N-cyclopropyl-nicotinamide], the Ki worked out at 1.1 nM.

For `Cc1onc(-c2ccc(Cl)cc2)c1COc1ccc(C(=O)NC2CCOCC2)cn1` [Example 121, 6-[3-(4-Chloro-phenyl)-5-methyl-isoxazol-4-ylmethoxy]-N-(tetrahydro-pyran-4-yl)-nicotinamide], the Ki came to 0.8 nM.

`Cc1onc(-c2ccc(Cl)cc2)c1COc1ccc(C(=O)N2CCS(=O)(=O)CC2)cn1` [Example 122, {6-[3-(4-Chloro-phenyl)-5-methyl-isoxazol-4-ylmethoxy]-pyridin-3-yl}-(1,1-dioxo-1,6-thiomorpholin-4-yl)-methanone]: the Ki came out at 2.9 nM.

As to `Cc1onc(-c2ccc(Cl)cc2)c1COc1ccc(C(=O)N2CCSCC2)cn1` [Example 124, {6-[3-(4-Chloro-phenyl)-5-methyl-isoxazol-4-ylmethoxy]-pyridin-3-yl}-thiomorpholin-4-yl-methanone], the Ki worked out at 7.5 nM.

With `Cc1onc(-c2ccc(F)c(F)c2)c1COc1ccc(C(=O)NCC(F)(F)F)cn1` [Example 125, 6-[3-(3,4-Difluoro-phenyl)-5-methyl-isoxazol-4-ylmethoxy]-N-(2,2,2-trifluoro-ethyl)-nicotinamide], the Ki turned out to be 2.7 nM.

As for `Cc1onc(-c2ccc(F)c(F)c2)c1COc1ccc(C(=O)NC(C)C)cn1` [Example 126, 6-[3-(3,4-Difluoro-phenyl)-5-methyl-isoxazol-4-ylmethoxy]-N-isopropyl-nicotinamide], the Ki was 4.7 nM.

The values are drawn from patent US8846719B2, “Isoxazolo-pyridine derivatives” (Roche Palo Alto LLC, priority 2007, dated 2014).
